{"source": "patent US5158939A", "about": "“Method of stimulating the immune systems of animals and compositions useful therefor” (priority 1990, dated 1992)", "key": {"[1]": {"system": "peritoneal macrophages", "experiment": "Induction of IL-1 in thioglycollate-elicited peritoneal macrophages (comitogenic thymocyte assay)", "type": "cell-based, BDF1 mice", "conditions": "in words; for induction of IL-1 release: DPLA alone 0.1, 1.0, 10 μg/ml", "description": "1L-1 assay--Peritoneal exudate cells were harvested from BDF1 mice 48 h after an intraperitoneal injection of thioglycollate. […] Macrophages were either pretreated with R. sphaeroides DPLA (0.1-10 μg/ml) followed by the addition of toxic Re LPS (0.1 μg) after 2 h, or immediately stimulated with Re LPS (0.01-1.00 μg/ml). Control wells were treated with 10 μl of media containing 0.5% triethylamine. Cultures were incubated at 37° C. in the presence of 5% CO2 for 18 h at which time the supernatants were collected and frozen at -20° C. until assayed. 1L-1 activity was determined by the comitogenic thymocyte assay.^25\nPeritoneal exudate cells were harvested from BDF1 mice 48 h after an intraperitoneal injection of thioglycollate as described previously (Lederer and Czuprynki). Macrophages were either pretreated with R. sphaeroides DPLA (0.1-10 μg/ml) followed by addition of toxic ReLPS (0.1 μg), or immediately stimulated with ReLPS (0.01-1.00 μg/ml). Control wells were treated with 10 μl of media with 0.5% triethylamine. Cultures were incubated at 37° C. in the presence of 5% CO2 for 18 h at which time the supernatants were collected and frozen at -20° C. until assayed.\nReLPS was added to the culture 2 h after adding the R. sphaeroides DPLA. […] Standard deviation in CPM are given in parentheses."}, "[2]": {"system": "RAW 264.7 murine macrophage cells", "experiment": "Cachectin/TNF production by RAW 264.7 cells, immunoblot", "type": "cell-based", "method": "For the […] to activate the RAW 264.7 murine macrophage cell line, we chose the toxic deep rough chemotype LPS (ReLPS) from Escherichia coli D31m4, which was recently purified and characterized^15. […] This is a clear example of a lipid A derivative showing strong antagonism against a toxic agonist in the induction of cachectin.\nThe immunoblot method was used to quantitate the cachectin/TNF production by RAW 264.7 murine macrophage cells. RAW 264.7 cells^4,16 were seeded in 24-well plates (Nunc) at a density of 3×10^5 cells/well in Dulbecco's modified Eagle's medium supplemented with 5 percent fetal calf serum. After 12 hours, cell monolayers were washed twice with 1 ml of serum-free medium and then left covered with […] of the same. An aqueous suspension of DPLA and/or ReLPS was then added to a final concentration indicated. Cells were incubated for 12 hours, after which the medium was removed for measurement of TNF by immunoblotting. One hundred μl of medium was mixed with 100 μl of SDS-containing sample buffer, heated to 100° C. for 5 minutes, and subjected to electrophoresis in a 10-15% polyacrylamide gradient gel. Proteins were then transferred to nitrocellulose electrophoretically, and TNF was visualized through the use of a rabbit anti-mouse TNF polyclonal serum^3,5 applied at a 1:100 dilution, followed by alkaline phosphatase-conjugated goat anti-rabbit IgG (Bio-Rad).\nBands were visualized using nitroblue tetrazolium. Approximately 0.1 ng of cachectin/TNF may be detected as a band. The antiserum also recognized the processing intermediates (prohormones) on Western blot."}, "[3]": {"system": "70Z/3 cells", "type": "cell-based", "method": "^1 Corrected for background of 5% fluorescence.\n^2 The DPLA stimulated 7OZ/3 preB cells to the extent of from 2.5-6.0\nfluorescence at concentrations of 1.0-10 mg/ml. In the competitive\ninhibition experiment, the cells were first exposed to DPLA for 2 hours\nbefore adding the ReLPS. In all experiments, the ReLPS and DPLA were\ncomplexed with bovine serum albumin.\nIn this experiment, 0.1 μg/ml of ReLPS and 3.0 μg/ml of DPLA were\n^1 The time of pre/post treatment of 7OZ/3 cells with DPLA relative t\nthe time of addition of ReLPS are indicated."}, "[4]": {"system": "chick embryo", "experiment": "Chick embryo lethality test", "type": "in vivo", "method": "It was characterized as the tetramethyl derivative by plasma desorption mass spectrometry. It is nontoxic based on the chick embryo lethality test (CELD50 >20 μg), and its structure is shown in Formula II."}, "[5]": {"experiment": "Toxicity / endotoxic activity (general statements)", "conditions": "in words"}}, "note": "“Also recorded” adds a separate entry of the source. Where two headings read alike, the source gives them in different places.", "data": [{"smiles": "CCCCCCC=CCCCCCC(=O)OC(CCCCCCCCCCC)CC(=O)NC1C(OCC2OC(OP(=O)(O)O)C(NC(=O)CC(=O)CCCCCCCCCCC)C(OC(=O)CC(O)CCCCCCC)C2O)OC(CO)C(OP(=O)(O)O)C1OC(=O)CC(O)CCCCCCC", "note": "(stereo not shown) [DPLA]", "values": [{"measurement": "induction of IL-1 release", "setting": "[1]", "value": "unable to induce interleukin-1 release; also recorded: no IL-1/releasing activity"}, {"measurement": "induction of IL-1 release", "setting": "[1]; listed as pentaacyl DPLA", "value": "unable to induce 1L-1"}, {"measurement": "blocking of ReLPS-induced IL-1 release", "setting": "[1]", "value": "blocked this activity by toxic deep rough chemotype LPS; also recorded: antogonize the induction of IL-1 release by toxic Re LPS; also recorded: blocked the release of IL-1"}, {"measurement": "induction of cachectin (immunoblot)", "setting": "[2]; DPLA 1-1000 ng/ml", "value": "not able to induce the formation of cachectin"}, {"measurement": "inhibition of ReLPS-induced cachectin (immunoblot)", "setting": "[2]; DPLA 10^3 ng/ml + ReLPS 10 ng/ml (ReLPS:DPLA 1:100)", "value": "definite inhibition"}, {"measurement": "induction of cachectin (immunoblot)", "setting": "[2]; DPLA 10^4 ng/ml", "value": "only slight induction"}, {"measurement": "blocking of ReLPS-induced cachectin/TNF (immunoblot)", "setting": "[2]; in words", "value": "blocks the induction of cachectin; also recorded: blocking of induction"}, {"measurement": "DPLA concentration at which inhibition was probably maximal", "setting": "[2]; with ReLPS 10 ng/ml", "value": "< 10^4 ng/ml"}, {"measurement": "Activation (% fluorescence)", "setting": "[3]; Table 4, DPLA 0.1 μg/ml 2 h before ReLPS 0.1 μg/ml", "value": 52, "unit": "% fluorescence"}, {"measurement": "Activation (% fluorescence)", "setting": "[3]; Table 4, DPLA 0.3 μg/ml 2 h before ReLPS 0.1 μg/ml", "value": 45, "unit": "% fluorescence"}, {"measurement": "Activation (% fluorescence)", "setting": "[3]; Table 4, DPLA 1.0 μg/ml 2 h before ReLPS 0.1 μg/ml", "value": 26.5, "unit": "% fluorescence"}, {"measurement": "Activation (% fluorescence)", "setting": "[3]; Table 4, DPLA 3.0 μg/ml 2 h before ReLPS 0.1 μg/ml", "value": 14, "unit": "% fluorescence"}, {"measurement": "Activation (% fluorescence)", "setting": "[3]; Table 5, DPLA 1.0 μg/ml, ReLPS 0", "value": 3.5, "unit": "% fluorescence"}, {"measurement": "Activation (% fluorescence)", "setting": "[3]; Table 5, DPLA 1.0 μg/ml, ReLPS 0.1 μg/ml", "value": 28.5, "unit": "% fluorescence"}, {"measurement": "Activation (% fluorescence)", "setting": "[3]; Table 5, DPLA 1.0 μg/ml, ReLPS 0.3 μg/ml", "value": 48.5, "unit": "% fluorescence"}, {"measurement": "Activation (% fluorescence)", "setting": "[3]; Table 5, DPLA 1.0 μg/ml, ReLPS 1.0 μg/ml", "value": 57.5, "unit": "% fluorescence"}, {"measurement": "Activation (% fluorescence)", "setting": "[3]; Table 5, DPLA 1.0 μg/ml, ReLPS 10 μg/ml", "value": 75.5, "unit": "% fluorescence"}, {"measurement": "Activation (% fluorescence)", "setting": "[3]; Table 5, DPLA 3.0 μg/ml, ReLPS 0", "value": 2.56, "unit": "% fluorescence"}, {"measurement": "Activation (% fluorescence)", "setting": "[3]; Table 5, DPLA 3.0 μg/ml, ReLPS 0.1 μg/ml", "value": 13.5, "unit": "% fluorescence"}, {"measurement": "Activation (% fluorescence)", "setting": "[3]; Table 5, DPLA 3.0 μg/ml, ReLPS 0.3 μg/ml", "value": 30, "unit": "% fluorescence"}, {"measurement": "Activation (% fluorescence)", "setting": "[3]; Table 5, DPLA 3.0 μg/ml, ReLPS 1.0 μg/ml", "value": 55, "unit": "% fluorescence"}, {"measurement": "Activation (% fluorescence)", "setting": "[3]; Table 5, DPLA 3.0 μg/ml, ReLPS 10 μg/ml", "value": 77, "unit": "% fluorescence"}, {"measurement": "Activation (% fluorescence)", "setting": "[3]; Table 5, DPLA 10 μg/ml, ReLPS 0.1 μg/ml", "value": 4.5, "unit": "% fluorescence"}, {"measurement": "Activation (% fluorescence)", "setting": "[3]; Table 5, DPLA 10 μg/ml, ReLPS 0.3 μg/ml", "value": 11, "unit": "% fluorescence"}, {"measurement": "Activation (% fluorescence)", "setting": "[3]; Table 5, DPLA 10 μg/ml, ReLPS 1.0 μg/ml", "value": 25, "unit": "% fluorescence"}, {"measurement": "Activation (% fluorescence)", "setting": "[3]; Table 5, DPLA 10 μg/ml, ReLPS 10 μg/ml", "value": 69, "unit": "% fluorescence"}, {"measurement": "Activation (% fluorescence)", "setting": "[3]; Table 6, DPLA 3.0 μg/ml added at 0 h relative to ReLPS 0.1 μg/ml", "value": 10.5, "unit": "% fluorescence"}, {"measurement": "Activation (% fluorescence)", "setting": "[3]; Table 6, DPLA 3.0 μg/ml added at 2 h relative to ReLPS 0.1 μg/ml", "value": 20, "unit": "% fluorescence"}, {"measurement": "Activation (% fluorescence)", "setting": "[3]; Table 6, DPLA 3.0 μg/ml added at 4 h relative to ReLPS 0.1 μg/ml", "value": 24, "unit": "% fluorescence"}, {"measurement": "Activation (% fluorescence)", "setting": "[3]; Table 6, DPLA 3.0 μg/ml added at 6 h relative to ReLPS 0.1 μg/ml", "value": 24.5, "unit": "% fluorescence"}, {"measurement": "Activation (% fluorescence)", "setting": "[3]; Table 6, DPLA 3.0 μg/ml added at 8 h relative to ReLPS 0.1 μg/ml", "value": 9.5, "unit": "% fluorescence"}, {"measurement": "Activation (% fluorescence)", "setting": "[3]; Table 6, DPLA 3.0 μg/ml added at 16 h relative to ReLPS 0.1 μg/ml", "value": 44, "unit": "% fluorescence"}, {"measurement": "Activation (% fluorescence)", "setting": "[3]; Table 6, DPLA 3.0 μg/ml added at 20 h relative to ReLPS 0.1 μg/ml", "value": 54, "unit": "% fluorescence"}, {"measurement": "Activation (% fluorescence)", "setting": "[3]; Table 6, DPLA 3.0 μg/ml added at 24 h relative to ReLPS 0.1 μg/ml", "value": 55.5, "unit": "% fluorescence"}, {"measurement": "Activation (% fluorescence)", "setting": "[3]; Table 6, DPLA 3.0 μg/ml added at -2 h relative to ReLPS 0.1 μg/ml", "value": 11, "unit": "% fluorescence"}, {"measurement": "antagonism of LPS-induced activation of 70Z/3 pre-B cells", "setting": "[3]; in words", "value": "effective antagonist in the LPS-induced activation of 70Z/3 pre-B cells; also recorded: block LPS-inducted immunoglobulin synthesis by 70Z/3 pre-B cells"}, {"measurement": "CELD50", "setting": "[4]", "value": "> 20", "unit": "µg"}, {"measurement": "endotoxic activity", "setting": "[5]", "value": "nontoxic"}, {"measurement": "endotoxic activity", "setting": "[5]; listed as R. sphaeroides DPLA", "value": "not endotoxic"}, {"measurement": "endotoxic activity", "setting": "[5]; listed as pentaacyl DPLA", "value": "lacks endotoxic activity; also recorded: no endotoxic activity"}]}]}
